Data: patent US9326506B2, “Preparation method, agricultural composition and applications of natural brassinolide analogs” (CHENGDU NEWSUN CROPSCIENCE CO., LTD, priority 2012, dated 2016)

System: rice
Experiment: Low temperature assay on rice seedlings
Assay type: in vivo
How it was run: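 Nine-day-old etiolated rice seedlings (grown on water at 30 °C±2 °C, dark) immersed in brassinolide analogues at 1–0.0001 mg/L or pure water, held at 1–5 °C for 24 hr. Plant height, leaf area, root weight read at 3, 6, 9, 12 days; leaf and tiller number at 12 days.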

Structure (SMILES): CC(C)[C@H](C)[C@@H](O)[C@H](O)[C@@H](C)[C@H]1CCC2C3CC(=O)C4C[C@H](O)CC[C@]4(C)C3CC[C@@]21C (stereo partly drawn) [BR4]
- Area of leaf (0.0001 mg/l, 1 °C, 3 days): 9.8 cm^2
- Height (0.0001 mg/l, 1 °C, 3 days): 6.8 cm
- Weight of root (0.0001 mg/l, 1 °C, 3 days): 2.8 g
- Area of leaf (0.0001 mg/l, 1 °C, 6 days): 11 cm^2
- Height (0.0001 mg/l, 1 °C, 6 days): 6.9 cm
- Weight of root (0.0001 mg/l, 1 °C, 6 days): 3 g
- Area of leaf (0.0001 mg/l, 1 °C, 9 days): 12.2 cm^2
- Height (0.0001 mg/l, 1 °C, 9 days): 7 cm
- Weight of root (0.0001 mg/l, 1 °C, 9 days): 3.1 g
- Area of leaf (0.0001 mg/l, 1 °C, 12 days): 13 cm^2
- Height (0.0001 mg/l, 1 °C, 12 days): 7.2 cm
- Number of leaf (0.0001 mg/l, 1 °C, 12 days): 3
- Number of tiller (0.0001 mg/l, 1 °C, 12 days): 3
- Weight of root (0.0001 mg/l, 1 °C, 12 days): 3.5 g
- Area of leaf (0.0001 mg/l, 2 °C, 3 days): 10 cm^2
- Height (0.0001 mg/l, 2 °C, 3 days): 6.8 cm
- Weight of root (0.0001 mg/l, 2 °C, 3 days): 2.8 g
- Area of leaf (0.0001 mg/l, 2 °C, 6 days): 11.7 cm^2
- Height (0.0001 mg/l, 2 °C, 6 days): 7 cm
- Weight of root (0.0001 mg/l, 2 °C, 6 days): 3.0 g
- Area of leaf (0.0001 mg/l, 2 °C, 9 days): 12 cm^2
- Height (0.0001 mg/l, 2 °C, 9 days): 7.1 cm
- Weight of root (0.0001 mg/l, 2 °C, 9 days): 3.2 g
- Area of leaf (0.0001 mg/l, 2 °C, 12 days): 13 cm^2
- Height (0.0001 mg/l, 2 °C, 12 days): 7.2 cm
- Number of leaf (0.0001 mg/l, 2 °C, 12 days): 3
- Number of tiller (0.0001 mg/l, 2 °C, 12 days): 3
- Weight of root (0.0001 mg/l, 2 °C, 12 days): 3.7 g
- Area of leaf (0.0001 mg/l, 3 °C, 3 days): 10 cm^2
- Height (0.0001 mg/l, 3 °C, 3 days): 6.9 cm
- Weight of root (0.0001 mg/l, 3 °C, 3 days): 2.5 g
- Area of leaf (0.0001 mg/l, 3 °C, 6 days): 11.8 cm^2
- Height (0.0001 mg/l, 3 °C, 6 days): 7.1 cm
- Weight of root (0.0001 mg/l, 3 °C, 6 days): 2.6 g
- Area of leaf (0.0001 mg/l, 3 °C, 9 days): 12.1 cm^2
- Height (0.0001 mg/l, 3 °C, 9 days): 7.4 cm
- Weight of root (0.0001 mg/l, 3 °C, 9 days): 2.9 g
- Area of leaf (0.0001 mg/l, 3 °C, 12 days): 13 cm^2
- Height (0.0001 mg/l, 3 °C, 12 days): 7.4 cm
- Number of leaf (0.0001 mg/l, 3 °C, 12 days): 3
- Number of tiller (0.0001 mg/l, 3 °C, 12 days): 2
- Weight of root (0.0001 mg/l, 3 °C, 12 days): 2.9 g
- Area of leaf (0.0001 mg/l, 4 °C, 3 days): 10 cm^2
- Height (0.0001 mg/l, 4 °C, 3 days): 6.9 cm
- Weight of root (0.0001 mg/l, 4 °C, 3 days): 2.5 g
- Area of leaf (0.0001 mg/l, 4 °C, 6 days): 11.5 cm^2
- Height (0.0001 mg/l, 4 °C, 6 days): 7.1 cm
- Weight of root (0.0001 mg/l, 4 °C, 6 days): 2.6 g
- Area of leaf (0.0001 mg/l, 4 °C, 9 days): 13 cm^2
- Height (0.0001 mg/l, 4 °C, 9 days): 7.5 cm
- Weight of root (0.0001 mg/l, 4 °C, 9 days): 2.9 g
- Area of leaf (0.0001 mg/l, 4 °C, 12 days): 13.4 cm^2
- Height (0.0001 mg/l, 4 °C, 12 days): 7.5 cm
- Number of leaf (0.0001 mg/l, 4 °C, 12 days): 3
- Number of tiller (0.0001 mg/l, 4 °C, 12 days): 2
- Weight of root (0.0001 mg/l, 4 °C, 12 days): 2.9 g
- Area of leaf (0.0001 mg/l, 5 °C, 3 days): 10.2 cm^2
- Height (0.0001 mg/l, 5 °C, 3 days): 7.0 cm
- Weight of root (0.0001 mg/l, 5 °C, 3 days): 2.5 g
- Area of leaf (0.0001 mg/l, 5 °C, 6 days): 12 cm^2
- Height (0.0001 mg/l, 5 °C, 6 days): 7.3 cm
- Weight of root (0.0001 mg/l, 5 °C, 6 days): 2.5 g
- Area of leaf (0.0001 mg/l, 5 °C, 9 days): 13 cm^2
- Height (0.0001 mg/l, 5 °C, 9 days): 7.5 cm
- Weight of root (0.0001 mg/l, 5 °C, 9 days): 2.9 g
- Area of leaf (0.0001 mg/l, 5 °C, 12 days): 13.4 cm^2
- Height (0.0001 mg/l, 5 °C, 12 days): 7.6 cm
- Number of leaf (0.0001 mg/l, 5 °C, 12 days): 3
- Number of tiller (0.0001 mg/l, 5 °C, 12 days): 2
- Weight of root (0.0001 mg/l, 5 °C, 12 days): 2.9 g
- Area of leaf (0.001 mg/l, 1 °C, 3 days): 10 cm^2
- Height (0.001 mg/l, 1 °C, 3 days): 6.9 cm
- Weight of root (0.001 mg/l, 1 °C, 3 days): 2.8 g
- Area of leaf (0.001 mg/l, 1 °C, 6 days): 11.3 cm^2
- Height (0.001 mg/l, 1 °C, 6 days): 7 cm
- Weight of root (0.001 mg/l, 1 °C, 6 days): 3.1 g
- Area of leaf (0.001 mg/l, 1 °C, 9 days): 12.6 cm^2
- Height (0.001 mg/l, 1 °C, 9 days): 7.1 cm
- Weight of root (0.001 mg/l, 1 °C, 9 days): 3.2 g
- Area of leaf (0.001 mg/l, 1 °C, 12 days): 13.6 cm^2
- Height (0.001 mg/l, 1 °C, 12 days): 7.4 cm
- Number of leaf (0.001 mg/l, 1 °C, 12 days): 3
- Number of tiller (0.001 mg/l, 1 °C, 12 days): 3
- Weight of root (0.001 mg/l, 1 °C, 12 days): 3.7 g
- Area of leaf (0.001 mg/l, 2 °C, 3 days): 9.8 cm^2
- Height (0.001 mg/l, 2 °C, 3 days): 6.9 cm
- Weight of root (0.001 mg/l, 2 °C, 3 days): 2.8 g
